From PMC10453993 (Emerging Microbes & Infections, 2023)
Like-named read-outs stand apart in the source and are kept apart here.

System: SARS-CoV-2 VOCs
Experiment: microbe, parasite or virus in culture
Type: cell-based
[1] = Severe acute respiratory syndrome coronavirus 2, read-out: EC50, dsRNA staining
[2] = Severe acute respiratory syndrome coronavirus 2, read-out: EC50, nucleocapsid staining

CC(C)(C)[C@H](NC(=O)C(F)(F)F)C(=O)N1C[C@H]2[C@@H]([C@H]1C(=O)N[C@H](C#N)C[C@@H]1CCNC1=O)C2(C)C [C7, Nirmatrelvir, reference compound] gave an EC50 (Severe acute respiratory syndrome coronavirus 2, Calu-3) of 1300 nM, an EC50 [1] of 400 to 700 nM and an EC50 [2] of 300 to 400 nM.

Work on CN(C)c1ccc(N(Cc2cc(Cl)cs2)C(=O)Cc2cncc3cccc(O)c23)cc1 [C5a, N-((4-chlorothiophen-2-yl)methyl)-N-(4-(dimethylamino)phenyl)-2-(5-hydroxyisoquinolin-4-yl)acetamide] yielded an EC50 [1] of 28 to 95 nM and an EC50 [2] of 30 to 69 nM.

CN(C)c1ccc(N(Cc2cc(Cl)cs2)C(=O)Cc2cncc3ccccc23)cc1 [C5, N-((4-chlorothiophen-2-yl)methyl)-N-(4-(dimethylamino)phenyl)-2-(isoquinolin-4-yl)acetamide] was tested, and the EC50 [1] was 200 to 700 nM and the EC50 [2] was 100 to 300 nM.
